Assay results published in patent publication US4407806A, “Fungicidal, herbicidal and plant growth regulating pyridyl-containing ethers” (Chevron Research Company, priority 1981, dated 1983).

Experiments:
Assay type in all cases: in vivo
[1] = system: Lambsquarter (Chenopodium album); experiment: Pre-emergent herbicidal test; conditions: 504 h, pre-emergence, 33 micrograms/cm^2, 3 weeks, 0-to-100 scale, read-out: Herbicidal Activity Pre-Emergence % Control, L'Qtr.
Description: (§1) An acetone solution of the test compound was prepared by mixing 750 mg of the compound, 220 mg of a nonionic surfactant and 25 ml of acetone. This solution was added to approximately 125 ml of water containing 156 mg of surfactant.
(§2) Seeds of the test vegetation were planted in a pot of […] and the test solution was sprayed uniformly onto the soil surface at a dose of 33 micrograms/cm^2. The pot was watered and placed in a greenhouse. […] At the end of this period, the herbicidal effectiveness of the compound was rated based on the physiological observations. A 0-to-100 scale was used, 0 representing no phytotoxicity, 100 representing complete kill.

Wild Oats (Avena fatura) [2] = experiment: Pre-emergent herbicidal test; conditions: 504 h, pre-emergence, 33 micrograms/cm^2, 3 weeks, 0-to-100 scale
Description: as §1, §2

[3] = system: Mustard (Brassica arvensis); experiment: Pre-emergent herbicidal test; conditions: 504 h, pre-emergence, 33 micrograms/cm^2, 3 weeks, 0-to-100 scale
Description: as §1, §2

[4] = system: Watergrass (Echinochloa crusgalli); experiment: Pre-emergent herbicidal test; conditions: Echinochloa crus-galli, 504 h; pre-emergence; 33 micrograms/cm^2; 3 weeks; 0-to-100 scale; read-out: Herbicidal Activity Pre-Emergence % Control, Water Grass
Description: as §1, §2

Soybean [5] = experiment: Pre-emergent herbicidal test; conditions: Glycine max, 504 h; pre-emergence; 33 micrograms/cm^2; 3 weeks; 0-to-100 scale; read-out: Herbicidal Activity Pre-Emergence % Control, Soybean
Description: as §1, §2

[6] = system: Crabgrass (Digitaria sanguinalis); experiment: Pre-emergent herbicidal test; conditions: 504 h, pre-emergence, 33 micrograms/cm^2, 3 weeks, 0-to-100 scale, read-out: Herbicidal Activity Pre-Emergence % Control, Crab Grass
Description: as §1, §2

[7] = system: Pigweed (Amaranthus retraflexus); experiment: Pre-emergent herbicidal test; conditions: 504 h, pre-emergence, 33 micrograms/cm^2, 3 weeks, 0-to-100 scale
Description: as §1, §2

[8] = system: Lambsquarter (Chenopodium album); experiment: Post-emergent herbicidal test; conditions: 504 h, post-emergence, 33 micrograms/cm^2, 3 weeks, 0-to-100 scale, read-out: Herbicidal Activity Post-Emergence % Control, L'Qtr.
Wild Oats (Avena fatura) [9] = experiment: Post-emergent herbicidal test; conditions: 504 h, post-emergence, 33 micrograms/cm^2, 3 weeks, 0-to-100 scale
[10] = system: Mustard (Brassica arvensis); experiment: Post-emergent herbicidal test; conditions: 504 h, post-emergence, 33 micrograms/cm^2, 3 weeks, 0-to-100 scale
[11] = system: Watergrass (Echinochloa crusgalli); experiment: Post-emergent herbicidal test; conditions: Echinochloa crus-galli, 504 h, post-emergence, 33 micrograms/cm^2, 3 weeks, 0-to-100 scale, read-out: Herbicidal Activity Post-Emergence % Control, Water Grass
Soybean [12] = experiment: Post-emergent herbicidal test; conditions: Glycine max, 504 h, post-emergence, 33 micrograms/cm^2, 3 weeks, 0-to-100 scale, read-out: Herbicidal Activity Post-Emergence % Control, Soybean
[13] = system: Crabgrass (Digitaria sanguinalis); experiment: Post-emergent herbicidal test; conditions: 504 h, post-emergence, 33 micrograms/cm^2, 3 weeks, 0-to-100 scale, read-out: Herbicidal Activity Post-Emergence % Control, Crab Grass
[14] = system: Pigweed (Amaranthus retraflexus); experiment: Post-emergent herbicidal test; conditions: 504 h, post-emergence, 33 micrograms/cm^2, 3 weeks, 0-to-100 scale
[15] = system: Bean Powdery Mildew organism Erisiphe polygoni; experiment: Bean Powdery Mildew control; conditions: 240 h, 10 days, vs untreated check, read-out: Fungicidal Activity Control %, Bean P.M.
Description: The compounds of the invention were tested for the control of the Bean Powdery Mildew organism […] polygoni. Seedling bean plants were sprayed with a 250 ppm solution of the test compound in acetone, water and a nonionic emulsifier. The sprayed plants were then inoculated 1 day later with organism. […] The percent disease control provided by a given test compound was based on the percent disease reduction relative to the untreated check plants.

[16] = system: tomato Early Blight organism, Alternaria solani conidia; experiment: Tomato Early Blight control; conditions: 288 h, about 12 days in greenhouse, vs untreated check, read-out: Fungicidal Activity Control %, Tomato E.B.
Description: Compounds of the invention were tested for the control of the tomato Early Blight organism, Alternaria solani conidia. Tomato (variety Bonny Best) seedlings of 6 to 7 weeks old were used. The tomato plants were sprayed with a 250 ppm solution of the test compound in an acetone-and-water solution containing a small amount of a nonionic emulsifier. The sprayed plants were inoculated one day later with the organism, placed in the environmental chamber and incubated at […] and 100% relative humidity for 24 hours. Following the incubation, the plants were maintained in a greenhouse for about 12 days. Percent diseases control was based on the percent disease development on untreated check plants.

[17] = system: celery late blight organism Septoria apii; experiment: whole plant or invertebrate; conditions: 336 h, read-out: Fungicidal Activity Control %, Celery L.B.
Cotton plants = experiment: Cotton Regrowth; conditions: Gossypium hirsutum, 13 to 18 days, 100% is total inhibition, read-out: Regrowth (percent inhibition of cotton regrowth)
Description: Compounds of this invention were tested to determine their plant-growth regulating effects on cotton leaf regrowth.
Cotton plants, 4 to 5 weeks old, containing 4 true leaves above the cotyledonary leaves are employed. Growth beyond the second true leaf was removed. Within 24 hours the plants are sprayed with a 2000 ppm solution of the test compound. After spraying, the plants are transferred to a greenhouse maintained at 85° F. (±5° F.) and incubated there for from 13 to 18 days. The plants during this period are sub-irrigated in 1/4" of water.
After this period, regrowth is determined as a percent inhibition of auxiliary bud regrowth--100% is total inhibition while 0% is no inhibition.

Idaho pinto bean plants = experiment: Axillary Bud Growth Inhibition Of Pinto Bean Plants; conditions: 288 h; 625-ppm; twelve days after treatment; vs untreated check; read-out: Bud Inhib (percent inhibition of axillary bud growth)
Description: Compounds of this invention were tested to determine their plant-growth-retarding effects on axillary bud growth of pinto beans.
Idaho pinto bean plants (13-16 days old) having monofoliate leaves fully developed and first trifoliates beginning to unfold were used. All growth 5 mm above the monofoliate leaf node was removed with forceps 1 to 4 hours prior to treatment with the test compounds. Four plants were used for each test compound.
A 625-ppm solution of the test compound in a 2% aqueous acetone solution containing a small amount of a nonionic surfactant was sprayed onto the pinto bean plants until runoff. After drying, the treated plants were transferred to a greenhouse maintained at 20°-23° C. and watered at regular intervals. Twelve days after treatment, the bud growth at the axil of the monofoliate leaf was determined and expressed as percent inhibition of axillary bud growth as compared to untreated check plants.

[18] = system: Tomato Late Blight organism Phytophthora infestans; experiment: whole plant or invertebrate; conditions: 168 h, read-out: Fungicidal Activity Control %, Tomato L.B.
[19] = system: grape downy mildew organism Plasmopara viticola; experiment: Grape Downy Mildew control (detached grape leaves); conditions: vs untreated check, read-out: Fungicidal Activity Control %, Grape D.M.

FC(F)(F)c1cccc(COC(c2cccnc2)c2ccc(Cl)cc2Cl)c1 (stereo not drawn) [Compound 5, 3-pyridyl-2,4-dichlorophenylcarbinol 3-trifluoromethylbenzylether]
pest or weed control at 33 µg/cm2 [1]: 25% | pest or weed control at 33 µg/cm2 (Wild Oats (Avena fatura) [2]): 15% | pest or weed control at 33 µg/cm2 [3]: 25% | pest or weed control at 33 µg/cm2 [4]: 55% | plant injury at 33 µg/cm2 (Soybean [5]): 30% | pest or weed control at 33 µg/cm2 [6]: 70% | pest or weed control at 33 µg/cm2 [7]: 45% | pest or weed control at 5000 ppm, 33 µg/cm2 [8]: 63% | pest or weed control at 5000 ppm, 33 µg/cm2 (Wild Oats (Avena fatura) [9]): 0% | pest or weed control at 5000 ppm, 33 µg/cm2 [10]: 40% | pest or weed control at 5000 ppm, 33 µg/cm2 [11]: 0% | plant injury at 5000 ppm, 33 µg/cm2 (Soybean [12]): 30% | pest or weed control at 5000 ppm, 33 µg/cm2 [13]: 0% | pest or weed control at 5000 ppm, 33 µg/cm2 [14]: 55% | pest or weed control at 250 ppm [15]: 100% | pest or weed control at 250 ppm [16]: 71% | pest or weed control at 250 ppm [17]: 91% | inhibition at 2000 ppm (Cotton plants): 65% | pest or weed control at 625 µg/mL (Idaho pinto bean plants): 70% | pest or weed control at 250 ppm [18]: 0% | pest or weed control at 250 ppm [19]: 12%

CC(C)(C)c1ccc(COC(c2cccnc2)c2ccc(Cl)cc2Cl)cc1 (stereo not drawn) [Compound 6, 3-pyridyl-2,4-dichlorophenylcarbinol 4-t-butylbenzylether]
pest or weed control at 33 µg/cm2 [1]: 15% | pest or weed control at 33 µg/cm2 (Wild Oats (Avena fatura) [2]): 25% | pest or weed control at 33 µg/cm2 [3]: 20% | pest or weed control at 33 µg/cm2 [4]: 65% | plant injury at 33 µg/cm2 (Soybean [5]): 0% | pest or weed control at 33 µg/cm2 [6]: 68% | pest or weed control at 33 µg/cm2 [7]: 35% | pest or weed control at 5000 ppm, 33 µg/cm2 [8]: 60% | pest or weed control at 5000 ppm, 33 µg/cm2 (Wild Oats (Avena fatura) [9]): 0% | pest or weed control at 5000 ppm, 33 µg/cm2 [10]: 25% | pest or weed control at 5000 ppm, 33 µg/cm2 [11]: 0% | plant injury at 5000 ppm, 33 µg/cm2 (Soybean [12]): 35% | pest or weed control at 5000 ppm, 33 µg/cm2 [13]: 0% | pest or weed control at 5000 ppm, 33 µg/cm2 [14]: 55% | pest or weed control at 250 ppm [15]: 100% | pest or weed control at 250 ppm [16]: 40% | pest or weed control at 250 ppm [17]: 78% | inhibition at 2000 ppm (Cotton plants): 90% | pest or weed control at 625 µg/mL (Idaho pinto bean plants): 60% | pest or weed control at 250 ppm [18]: 0% | pest or weed control at 250 ppm [19]: 50%

c1ccc(COC(c2ccccc2)c2cccnc2)cc1 (stereo not drawn) [Compound 7]
pest or weed control at 33 µg/cm2 [1]: 28% | pest or weed control at 33 µg/cm2 (Wild Oats (Avena fatura) [2]): 0% | pest or weed control at 33 µg/cm2 [3]: 0% | pest or weed control at 33 µg/cm2 [4]: 80% | plant injury at 33 µg/cm2 (Soybean [5]): 0% | pest or weed control at 33 µg/cm2 [6]: 99% | pest or weed control at 33 µg/cm2 [7]: 32% | pest or weed control at 5000 ppm, 33 µg/cm2 [8]: 65% | pest or weed control at 5000 ppm, 33 µg/cm2 (Wild Oats (Avena fatura) [9]): 0% | pest or weed control at 5000 ppm, 33 µg/cm2 [10]: 60% | pest or weed control at 5000 ppm, 33 µg/cm2 [11]: 0% | plant injury at 5000 ppm, 33 µg/cm2 (Soybean [12]): 35% | pest or weed control at 5000 ppm, 33 µg/cm2 [13]: 0% | pest or weed control at 5000 ppm, 33 µg/cm2 [14]: 45% | pest or weed control at 250 ppm [15]: 100% | pest or weed control at 250 ppm [16]: 0% | pest or weed control at 250 ppm [17]: 43% | inhibition at 2000 ppm (Cotton plants): 90% | pest or weed control at 625 µg/mL (Idaho pinto bean plants): 20% | pest or weed control at 250 ppm [18]: 0% | pest or weed control at 250 ppm [19]: 0%

FC(F)(F)c1cccc(COC(c2ccccc2)c2cccnc2)c1 (stereo not drawn) [Compound 8]
pest or weed control at 33 µg/cm2 [1]: 0% | pest or weed control at 33 µg/cm2 (Wild Oats (Avena fatura) [2]): 0% | pest or weed control at 33 µg/cm2 [3]: 0% | pest or weed control at 33 µg/cm2 [4]: 0% | plant injury at 33 µg/cm2 (Soybean [5]): 0% | pest or weed control at 33 µg/cm2 [6]: 0% | pest or weed control at 33 µg/cm2 [7]: 0% | pest or weed control at 5000 ppm, 33 µg/cm2 [8]: 40% | pest or weed control at 5000 ppm, 33 µg/cm2 (Wild Oats (Avena fatura) [9]): 0% | pest or weed control at 5000 ppm, 33 µg/cm2 [10]: 50% | pest or weed control at 5000 ppm, 33 µg/cm2 [11]: 0% | plant injury at 5000 ppm, 33 µg/cm2 (Soybean [12]): 25% | pest or weed control at 5000 ppm, 33 µg/cm2 [13]: 0% | pest or weed control at 5000 ppm, 33 µg/cm2 [14]: 50% | pest or weed control at 250 ppm [15]: 100% | pest or weed control at 250 ppm [16]: 25% | pest or weed control at 250 ppm [17]: 38% | inhibition at 2000 ppm (Cotton plants): 65% | pest or weed control at 625 µg/mL (Idaho pinto bean plants): 60% | pest or weed control at 250 ppm [18]: 0% | pest or weed control at 250 ppm [19]: 0%
